{"source": "patent US12261337B2", "about": "“Aqueous electrolyte, redox flow battery and use thereof” (priority 2018, dated 2025)", "key": {"[1]": {"settings": "cited from earlier work"}, "[2]": {"settings": "oxidized using Oxone; storage at 60° C., also in the absence of air; after three days"}}, "data": [{"compound": "C1=C[CH]([Fe][CH]2C=CC=C2)C=C1", "note": "[Ferrocene, bis(η^5-cyclopentadienyl)iron(II)]", "values": [{"measurement": "solubility in organic solvents", "setting": "[1]; organic solvents", "result": "readily soluble"}, {"measurement": "solubility in water", "setting": "[1]; water", "result": "sparingly soluble"}]}, {"compound": "ferrocene-bis-sulfonic acid [Example 1]", "values": [{"measurement": "stability of the charged molecule / charged electrolytes after storage", "setting": "[2]", "result": "irreversible precipitate"}]}]}
